Results taken from patent US20050004163A1, “3-(diarylmethylene)-8-azabicyclo[3.2.1]octane derivatives” (priority 2000, published 2005).

molecular target: T1, μ-opioid receptor (Rattus norvegicus, UniProt P33535); assay: Rat brain μ-opioid receptor binding assay ([3H]DAMGO); settings: 10 nM solutions of the compounds, read-out: MOR binding Ki
T1 construct: the forebrains are homogenized in Tris buffer in a Teflon®-glass homogenizer; from tissue; host or cells: forebrain of male Wistar rats (particulate membrane preparation)
Procedure: Rat Brain μ-Opioid Receptor Binding Assay
Male, Wistar rats (150-250 g, VAF, Charles River, Kingston, N.Y.) are killed by cervical dislocation and their brains removed and placed immediately in ice cold Tris HCl buffer (50 mM, pH 7.4). The forebrains are separated from the remainder of the brain by a coronal transection, beginning dorsally at the colliculi and passing ventrally through the midbrain-pontine junction. After dissection, the forebrains are homogenized in Tris buffer in a Teflon®-glass homogenizer. The homogenate is diluted to a concentration of 1 g of forebrain tissue per 100 mL Tris buffer and centrifuged at 39,000×G for 10 min. The pellet is resuspended in the same volume of Tris buffer with several brief pulses from a Polytron homogenizer. This particulate preparation is used for the μ-opioid binding assays. […] The tubes and filters are rinsed three times with 4 mL of 10 mM HEPES (pH 7.4) and the radioactivity associated with the filter circles determined using Formula 989 scintillation fluid (New England Nuclear, Boston, Mass.) in a scintillation counter.
The data are used to calculate either the % inhibition compared to control binding (when only a single concentration of test compound is evaluated) or a Ki value (when a range of concentrations is tested).
% Inhibition is calculated as follows: [formula]
Ki value is calculated using the LIGAND (Munson, P. J. and Rodbard, D., Anal. Biochem. 107: 220-239, 1980) data analysis program.

T1 sequence (P33535 whole entry): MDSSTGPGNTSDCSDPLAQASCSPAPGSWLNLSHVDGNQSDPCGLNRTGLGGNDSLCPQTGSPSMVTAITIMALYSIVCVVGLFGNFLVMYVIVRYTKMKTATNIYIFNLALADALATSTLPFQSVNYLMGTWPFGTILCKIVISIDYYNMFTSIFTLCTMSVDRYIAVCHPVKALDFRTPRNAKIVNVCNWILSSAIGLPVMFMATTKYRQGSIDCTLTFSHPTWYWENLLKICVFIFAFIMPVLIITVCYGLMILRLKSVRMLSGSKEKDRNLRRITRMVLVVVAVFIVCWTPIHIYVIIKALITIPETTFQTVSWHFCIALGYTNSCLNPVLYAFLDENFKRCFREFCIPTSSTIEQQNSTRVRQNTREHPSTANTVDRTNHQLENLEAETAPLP

Q: How did the Ki turn out when `CCNC(=O)c1ccc(C(=C2CC3CCC(C2)N3Cc2ccoc2)c2ccc([N+](=O)[O-])cc2)cc1` [Cpd 126] was run?
A: 1.45 nM

Q: How did the Ki turn out when `CCNC(=O)c1ccc(C(=C2CC3CCC(C2)N3Cc2ccc(C(=O)O)o2)c2cccc(C(=O)O)c2)cc1` [Cpd 87] was run?
A: 815 nM

Q: `CCNC(=O)c1ccc(C(=C2CC3CCC(C2)N3C=O)c2cccnc2)cc1` [Cpd 207, N-Ethyl-4-[(8-formyl-8-aza-bicyclo[3.2.1]oct-3-ylidene)-pyridin-3-yl-methyl]-benzamide] was tested. Which Ki did it give?
A: 10000 nM

Q: How did the Ki turn out when `CCNC(=O)c1ccc(C=C2CC3CCC(C2)N3Cc2sc3ccccc3c2C)cc1` [Cpd 78] was run?
A: 271 nM

Q: With `CCNC(=O)c1ccc(C=C2CC3CCC(C2)N3CCc2ccccc2)cc1` [Cpd 62] as the compound, how does the Ki read?
A: 8.56 nM

Q: With `CCNC(=O)c1ccc(C=C2CC3CCC(C2)N3CCc2ccccc2O)cc1` [Cpd 86] as the compound, how does the Ki read?
A: 19.3 nM

Q: Which Ki does the source give for `CCNC(=O)c1ccc(C(=C2CC3CCC(C2)N3CC=C(C)C)c2cccc(C(=O)O)c2)cc1` (single isomer, unassigned) [Cpd 44] here?
A: 58.3 nM

Q: How did the Ki turn out when `CCNC(=O)c1ccc(C=C2CC3CCC(C2)N3Cc2ncc[nH]2)cc1` [Cpd 32] was run?
A: 385 nM

Q: For `CCNC(=O)c1ccc(C(=C2CC3CCC(C2)N3CC=C(C)C)c2ccc(CO)cc2)cc1` [Cpd 194], which Ki is on record?
A: 3.67 nM

Q: How did the Ki turn out when `CCNC(=O)c1ccc(C=C2CC3CCC(C2)N3Cc2ccncc2)cc1` [Cpd 58] was run?
A: 1180 nM

Q: How did the Ki turn out when `CCNC(=O)c1ccc(C(=C2CC3CCC(C2)N3CCc2ccccc2)c2ccc(CCC(=O)O)cc2)cc1` [Cpd 135] was run?
A: 318 nM

Q: For `CCNC(=O)c1ccc(C(=C2CC3CCC(C2)N3Cc2ccc3ccccc3n2)c2ccccn2)cc1` [Cpd 13], which Ki is on record?
A: 123 nM

Q: For `CCNC(=O)c1ccc(C(Br)=C2CC3CCC(C2)N3Cc2c[nH]cn2)cc1` [Cpd 39], which Ki is on record?
A: 83.7 nM

Q: For `CCNC(=O)c1ccc(C(=C2CC3CCC(C2)N3Cc2ccco2)c2ccc([N+](=O)[O-])cc2)cc1` [Cpd 123], which Ki is on record?
A: 34.2 nM

same assay, conditions: MOR binding Ki

Q: For `CCNC(=O)c1ccc(C(=C2CC3CCC(C2)N3Cc2cccc(C(=O)O)c2)c2ccccc2)cc1` [Cpd 93], which Ki is on record?
A: 280 nM

Q: `CCNC(=O)c1ccc(C(=C2CC3CCC(C2)N3Cc2ccc3c(c2)OCO3)c2cccc3cccnc23)cc1` [Cpd 69] was tested. Which Ki did it give?
A: 133 nM

Q: `CCNC(=O)c1ccc(C(=C2CC3CCC(C2)N3CCc2ccccc2)c2cc(N)cc(C(=O)O)c2)cc1` [Cpd 116] was tested. Which Ki did it give?
A: 1510 nM

Q: With `CCNC(=O)c1ccc(C(=C2CC3CCC(C2)N3Cc2ccsc2)c2cccc(-c3nnn[nH]3)c2)cc1` (single isomer, unassigned) [Cpd 215] as the compound, how does the Ki read?
A: 3120 nM

Q: With `CCNC(=O)c1ccc(C(=C2CC3CCC(C2)N3Cc2ccsc2)c2ccc([N+](=O)[O-])cc2)cc1` [Cpd 128] as the compound, how does the Ki read?
A: 4.27 nM

Q: For `CCNC(=O)c1ccc(C(=C2CC3CCC(C2)N3Cc2ccsc2)c2cccc(C(=O)O)c2)cc1` [Cpd 175], which Ki is on record?
A: 34.4 nM

Q: With `CCNC(=O)c1ccc(C(=C2CC3CCC(C2)N3Cc2nccs2)c2cccc(CO)c2)cc1` [Cpd 186] as the compound, how does the Ki read?
A: 28.6 nM

Q: With `CCNC(=O)c1ccc(C(=C2CC3CCC(C2)N3Cc2ccc3c(c2)OCO3)c2cnc3ccccc3c2)cc1` [Cpd 65] as the compound, how does the Ki read?
A: 42.6 nM

Q: How did the Ki turn out when `CCNC(=O)c1ccc(C(=C2CC3CCC(C2)N3Cc2ccc3ccccc3n2)c2ccc(C(=O)O)cc2)cc1` [Cpd 100] was run?
A: 147 nM

Q: Which Ki does the source give for `CCNC(=O)c1ccc(C(=C2CC3CCC(C2)N3Cc2nccs2)c2cccc(C(=O)O)c2)cc1` [Cpd 102] here?
A: 1320 nM

Q: How did the Ki turn out when `CCNC(=O)c1ccc(C=C2CC3CCC(C2)N3Cc2ccc3c(c2)OCO3)cc1` [Cpd 54] was run?
A: 130 nM

Q: How did the Ki turn out when `CCNC(=O)c1ccc(C(=C2CC3CCC(C2)N3Cc2ccco2)c2cc(N)cc(C(=O)O)c2)cc1` [Cpd 108] was run?
A: 10000 nM

Q: `CCNC(=O)c1ccc(C(=C2CC3CCC(C2)N3Cc2ccccn2)c2cccc(C(=O)O)c2)cc1` [Cpd 82] was tested. Which Ki did it give?
A: 375 nM

Q: With `CCNC(=O)c1ccc(C(=C2CC3CCC(C2)N3CC=C(C)C)c2ccc(S(N)(=O)=O)cc2)cc1` [Cpd 142] as the compound, how does the Ki read?
A: 4.01 nM

Q: Which Ki does the source give for `CCNC(=O)c1ccc(C(=C2CC3CCC(C2)N3Cc2nccs2)c2cc(C(=O)O)cc([N+](=O)[O-])c2)cc1` [Cpd 159] here?
A: 13.5 nM

Q: With `CCNC(=O)c1ccc(C(=C2CC3CCC(C2)N3Cc2ccsc2)c2ccc(NS(C)(=O)=O)cc2)cc1` [Cpd 190] as the compound, how does the Ki read?
A: 0.717 nM

Q: How did the Ki turn out when `CCNC(=O)c1ccc(C=C2C[C@H]3CC[C@@H](C2)N3CCc2ccccc2)cc1` (single isomer, unassigned) [Cpd 42, (−)—N-Ethyl-4-(8-phenethyl-8-aza-bicyclo[3.2.1]oct-3-ylidenemethyl)-benzamide] was run?
A: 5.99 nM

Q: `CCNC(=O)c1ccc(C(=C2CC3CCC(C2)N3Cc2ncc[nH]2)c2ccc3c(c2)OCO3)cc1` [Cpd 6] was tested. Which Ki did it give?
A: 35.8 nM

Q: For `CCNC(=O)c1ccc(C(=C2CC3CCC(C2)N3Cc2ccc(C(=O)O)cc2)c2ccccc2)cc1` [Cpd 94], which Ki is on record?
A: 322 nM

Q: How did the Ki turn out when `CCNC(=O)c1ccc(C(=C2CC3CCC(C2)N3Cc2ccoc2)c2cnc3ccccc3c2)cc1` [Cpd 17] was run?
A: 20.3 nM

Q: Which Ki does the source give for `CCNC(=O)c1ccc(C(=C2CC3CCC(C2)N3Cc2ccc3ccccc3n2)c2cccc(NC(C)=O)c2)cc1` [Cpd 72] here?
A: 11.1 nM

Q: Which Ki does the source give for `CCNC(=O)c1ccc(C(=C2CC3CCC(C2)N3Cc2ccsc2)c2ccc(CCC(=O)O)cc2)cc1` [Cpd 129] here?
A: 6.73 nM

Q: For `CCNC(=O)c1ccc(C(=C2CC3CCC(C2)N3Cc2nccs2)c2cc(N)cc(C(=O)O)c2)cc1` [Cpd 118], which Ki is on record?
A: 10000 nM

Q: With `CCNC(=O)c1ccc(C(=C2CC3CCC(C2)N3CC=C(C)C)c2ccc(CCC(=O)O)cc2)cc1` [Cpd 137] as the compound, how does the Ki read?
A: 9.74 nM

Q: With `CCNC(=O)c1ccc(C(=C2CC3CCC(C2)N3CCN2CCN(C(=O)OC)CC2)c2ccccc2)cc1` [Cpd 91, 4-(2-{3-[(4-Ethylcarbamoylphenyl)-phenylmethylene]-8-azabicyclo[3.2.1]oct-8-yl}-ethyl)piperazine-1-carboxylic acid methyl ester] as the compound, how does the Ki read?
A: 175 nM

Q: For `CCN(CC)C(=O)c1ccc(C=C2CC3CCC(C2)N3)cc1` [Cpd 48, 4-(8-Aza-bicyclo[3.2.1]oct-3-ylidenemethyl)-N,N-diethylbenzamide], which Ki is on record?
A: 25800 nM

Q: How did the Ki turn out when `CCNC(=O)c1ccc(C=C2CC3CCC(C2)N3Cc2ccccn2)cc1` [Cpd 56] was run?
A: 1500 nM

Q: How did the Ki turn out when `CCNC(=O)c1ccc(C(=C2CC3CCC(C2)N3Cc2ccsc2)c2ccc(CO)cc2)cc1` [Cpd 205] was run?
A: 17.2 nM

Q: How did the Ki turn out when `CCNC(=O)c1ccc(C(=C2CC3CCC(C2)N3CCc2ccccc2)c2cccc(C(=O)O)c2)cc1` [Cpd 83] was run?
A: 17.2 nM

Q: `CCNC(=O)c1ccc(C(=C2CC3CCC(C2)N3)c2nnn[nH]2)cc1` [Cpd 151] was tested. Which Ki did it give?
A: 1.76 nM

Q: `CCNC(=O)c1ccc(C(=C2CC3CCC(C2)N3Cc2ccccn2)c2cccc3cccnc23)cc1` [Cpd 70] was tested. Which Ki did it give?
A: 41.1 nM

Q: `CCNC(=O)c1ccc(C(C#N)=C2CC3CCC(C2)N3)cc1` [Cpd 145] was tested. Which Ki did it give?
A: 945 nM

Q: With `CCNC(=O)c1ccc(C(=C2CC3CCC(C2)N3CC=C(C)C)c2cc(C(=O)O)cc([N+](=O)[O-])c2)cc1` [Cpd 155] as the compound, how does the Ki read?
A: 74.3 nM

Q: With `CCNC(=O)c1ccc(C(=C2CC3CCC(C2)N3Cc2nccs2)c2ccc(CCC(=O)O)cc2)cc1` [Cpd 132] as the compound, how does the Ki read?
A: 164 nM

Q: Which Ki does the source give for `CCNC(=O)c1ccc(C=C2CC3CCC(C2)N3Cc2cccnc2)cc1` [Cpd 57] here?
A: 1410 nM

Q: With `CCNC(=O)c1ccc(C(=C2CC3CCC(C2)N3Cc2nccs2)c2ccc(S(N)(=O)=O)cc2)cc1` [Cpd 140] as the compound, how does the Ki read?
A: 217 nM

Q: Which Ki does the source give for `CCNC(=O)c1ccc(C(=C2CC3CCC(C2)N3Cc2ccc3ccccc3n2)c2cccc(C(C)=O)c2)cc1` [Cpd 73] here?
A: 35.9 nM

Q: `CCNC(=O)c1ccc(C(=C2CC3CCC(C2)N3Cc2nccs2)c2ccc(CO)cc2)cc1` [Cpd 195] was tested. Which Ki did it give?
A: 64.2 nM

Q: With `CCNC(=O)c1ccc(C(=C2CC3CCC(C2)N3Cc2ccoc2)c2ccc(CCC(=O)O)cc2)cc1` [Cpd 127] as the compound, how does the Ki read?
A: 2.96 nM
